Results taken from ChEMBL document CHEMBL1201862, “PubChem BioAssay data set” (2004).
The source made the active and inactive calls.

How the values were obtained:
[1] = target: Prothrombin (Homo sapiens, UniProt P00734); experiment: Thrombin 1536 HTS Dose Response Confirmation. [Related pubchem assays: 1046 (Thrombin 1536 HTS; hits were confirmed in this assay)]; type: functional
[2] = target: T1, Low molecular weight phosphotyrosine protein phosphatase (Homo sapiens, UniProt P24666); type: functional; settings: read-out: IC50_Mean;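 note: Dose-response confirmation assay measuring inhibition of LMPTP enzyme activity by fluorescence intensity read-out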
T1 sequence (P24666 whole entry): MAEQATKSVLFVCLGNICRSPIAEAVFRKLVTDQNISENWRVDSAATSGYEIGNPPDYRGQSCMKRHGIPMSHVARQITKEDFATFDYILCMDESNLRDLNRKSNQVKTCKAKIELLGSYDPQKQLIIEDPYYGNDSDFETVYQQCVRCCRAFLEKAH

[3] = target: T2, Protein skinhead-1 (Caenorhabditis elegans, UniProt P34707); type: functional
T2 sequence (P34707 whole entry): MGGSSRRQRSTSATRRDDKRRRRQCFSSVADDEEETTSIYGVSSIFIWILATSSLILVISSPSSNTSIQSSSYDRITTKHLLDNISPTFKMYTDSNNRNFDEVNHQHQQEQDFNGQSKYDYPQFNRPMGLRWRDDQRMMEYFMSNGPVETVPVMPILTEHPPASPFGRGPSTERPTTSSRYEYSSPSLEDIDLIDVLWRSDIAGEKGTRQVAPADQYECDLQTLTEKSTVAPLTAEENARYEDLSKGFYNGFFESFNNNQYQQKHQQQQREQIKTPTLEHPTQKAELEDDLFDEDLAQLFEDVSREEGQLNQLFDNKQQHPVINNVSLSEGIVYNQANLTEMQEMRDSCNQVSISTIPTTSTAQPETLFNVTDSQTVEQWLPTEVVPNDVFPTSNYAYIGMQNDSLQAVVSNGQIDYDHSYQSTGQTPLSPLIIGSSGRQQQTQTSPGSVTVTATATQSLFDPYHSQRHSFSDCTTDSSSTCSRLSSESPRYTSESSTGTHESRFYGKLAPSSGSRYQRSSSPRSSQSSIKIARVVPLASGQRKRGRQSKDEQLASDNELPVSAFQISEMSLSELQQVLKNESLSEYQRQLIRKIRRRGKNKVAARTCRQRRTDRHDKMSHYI

[4] = target: T3, fMet-Leu-Phe receptor (Homo sapiens, UniProt P21462); experiment: formyl peptide receptor binders – dose response (AID 519); type: functional
T3 sequence (P21462 whole entry): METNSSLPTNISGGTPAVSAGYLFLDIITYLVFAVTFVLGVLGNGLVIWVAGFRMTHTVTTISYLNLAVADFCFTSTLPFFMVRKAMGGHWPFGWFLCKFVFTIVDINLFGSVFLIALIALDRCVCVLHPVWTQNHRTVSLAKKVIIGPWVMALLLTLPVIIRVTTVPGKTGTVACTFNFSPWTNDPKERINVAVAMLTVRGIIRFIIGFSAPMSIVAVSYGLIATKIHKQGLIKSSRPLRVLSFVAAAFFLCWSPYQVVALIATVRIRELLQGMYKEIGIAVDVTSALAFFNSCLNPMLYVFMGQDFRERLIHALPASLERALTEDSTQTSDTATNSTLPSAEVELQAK

[5] = HIV-1 Vif–A3G interaction blockers – biochemical, TR-FRET, GST-Vif 1-94, biotin-A3G peptide, dose response retest, primary screen (AID 1117319); type: functional;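 note: TR-FRET signal of purified GST-Vif binding a biotinylated A3G peptide; inhibitors lower the FRET signal by blocking Vif and A3G binding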
[6] = Luminescence Cell-Based Dose Retest to Confirm Inhibitors of Cancer Stem Cells. [Related pubchem assays (depositor defined):AID2717, AID2721]; type: functional; settings: Homo sapiens
[7] = target: Glyceraldehyde-3-phosphate dehydrogenase (Homo sapiens, UniProt P04406)
[8] = target: Peroxisome proliferator-activated receptor gamma/Nuclear receptor coactivator 2 (Homo sapiens, UniProt P37231); type: functional;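 note: agonist potency for raising coactivator recruitment to the receptor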
[9] = target: Peroxisome proliferator-activated receptor gamma/Nuclear receptor coactivator 1 (Homo sapiens, UniProt P37231); type: functional;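 note: agonist potency as compounds enhance coactivator SRC-1 recruitment to PPARgamma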
[10] = target: Peroxisome proliferator-activated receptor gamma/Nuclear receptor coactivator 3 (Homo sapiens, UniProt P37231); type: functional;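 note: agonist potency for raising coactivator recruitment to the receptor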
[11] = target: Mitogen-activated protein kinase 10 (Homo sapiens, UniProt P53779); experiment: Dose response biochemical screening assay for inhibitors of c-Jun N-Terminal Kinase 3 (JNK3). [Related pubchem assays: 746 ]
[12] = viability of uninfected HEp-2 cells – cell-based, HTS, cytotoxicity control for RSV inhibitor project, dose response (AID 2410); type: functional; settings: human respiratory syncytial virus
[13] = target: T4, Heat shock factor protein 1 (Mus musculus, UniProt P38532); experiment: enhancement of HSF1-driven luciferase signal – cell-based, NIH3T3, luminescence, dose retest, confirmation (AID 435004); type: functional;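 note: stress induced by proteasome inhibitor MG132 added 30 min after compound; luciferase reporter driven by HSF1 response element in NIH3T3 cells; actives raise luminescence as potentiators of the MG132 stress response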
T4 sequence (P38532 whole entry): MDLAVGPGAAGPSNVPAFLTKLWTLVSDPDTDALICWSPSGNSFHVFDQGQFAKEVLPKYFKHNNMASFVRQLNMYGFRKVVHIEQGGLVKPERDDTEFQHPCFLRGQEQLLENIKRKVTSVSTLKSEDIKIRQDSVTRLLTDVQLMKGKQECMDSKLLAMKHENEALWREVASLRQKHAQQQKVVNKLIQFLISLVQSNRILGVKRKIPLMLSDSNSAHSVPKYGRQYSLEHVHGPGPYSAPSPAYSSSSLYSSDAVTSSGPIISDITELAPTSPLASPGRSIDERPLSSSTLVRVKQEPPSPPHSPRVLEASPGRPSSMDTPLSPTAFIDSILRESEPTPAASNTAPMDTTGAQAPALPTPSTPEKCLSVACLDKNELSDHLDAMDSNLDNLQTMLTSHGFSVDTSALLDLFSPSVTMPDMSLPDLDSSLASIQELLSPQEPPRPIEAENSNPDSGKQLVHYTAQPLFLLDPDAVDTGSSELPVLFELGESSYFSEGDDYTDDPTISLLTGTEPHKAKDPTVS

[14] = tested on: Streptococcus sp. 'group A'; experiment: Streptococcus pyogenes SK(-)GAS viability under kanamycin – luminescence, BacTiterGlo, confirmation, counter-screen for streptokinase expression inhibitor project, dose response (AID 1900); type: functional, organism-based
[15] = target: T5, Streptokinase A (Streptococcus pyogenes serotype M1, UniProt P10520); experiment: viability-normalized secreted streptokinase activity reduction – plasminogen activation absorbance, OD405, dose response (AID 1914); type: functional, Streptococcus pyogenes M1 GAS;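 note: secreted streptokinase activity via plasminogen activation per viability signal from cell pellet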
T5 sequence (P10520 whole entry): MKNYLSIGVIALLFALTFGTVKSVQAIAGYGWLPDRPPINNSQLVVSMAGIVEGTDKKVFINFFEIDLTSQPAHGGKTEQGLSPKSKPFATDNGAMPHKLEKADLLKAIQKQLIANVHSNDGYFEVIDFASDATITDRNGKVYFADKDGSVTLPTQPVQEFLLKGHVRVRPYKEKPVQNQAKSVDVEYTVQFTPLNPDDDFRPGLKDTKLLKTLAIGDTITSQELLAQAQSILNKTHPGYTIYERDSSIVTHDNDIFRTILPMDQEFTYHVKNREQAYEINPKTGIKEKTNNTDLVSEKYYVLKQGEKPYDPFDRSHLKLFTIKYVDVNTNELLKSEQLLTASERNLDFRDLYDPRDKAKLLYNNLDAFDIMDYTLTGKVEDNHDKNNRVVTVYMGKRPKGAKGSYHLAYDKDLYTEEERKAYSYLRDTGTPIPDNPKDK

[16] = tested on: Streptococcus; experiment: GAS UMAA2166 growth inhibition – luminescence, BacTiterGlo, counter-screen for streptokinase expression inhibitor project, dose response (AID 1915); type: functional, organism-based;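 note: potency for reduction of bacterial viability or growth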
[17] = target: Cytochrome P450 2C19 (Homo sapiens, UniProt P33261); experiment: Cytochrome panel assay with activity outcomes. Panel member name: p450-cyp2c19 Compounds with AC50 equal or less than 10 uM are considered active; type: functional; settings: read-out: AC50
[18] = target: T6, Cytochrome P450 1A2 (Homo sapiens, UniProt P05177);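 note: PubChem cytochrome P450 panel assay, CYP1A2 panel member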
T6 sequence (P05177 whole entry): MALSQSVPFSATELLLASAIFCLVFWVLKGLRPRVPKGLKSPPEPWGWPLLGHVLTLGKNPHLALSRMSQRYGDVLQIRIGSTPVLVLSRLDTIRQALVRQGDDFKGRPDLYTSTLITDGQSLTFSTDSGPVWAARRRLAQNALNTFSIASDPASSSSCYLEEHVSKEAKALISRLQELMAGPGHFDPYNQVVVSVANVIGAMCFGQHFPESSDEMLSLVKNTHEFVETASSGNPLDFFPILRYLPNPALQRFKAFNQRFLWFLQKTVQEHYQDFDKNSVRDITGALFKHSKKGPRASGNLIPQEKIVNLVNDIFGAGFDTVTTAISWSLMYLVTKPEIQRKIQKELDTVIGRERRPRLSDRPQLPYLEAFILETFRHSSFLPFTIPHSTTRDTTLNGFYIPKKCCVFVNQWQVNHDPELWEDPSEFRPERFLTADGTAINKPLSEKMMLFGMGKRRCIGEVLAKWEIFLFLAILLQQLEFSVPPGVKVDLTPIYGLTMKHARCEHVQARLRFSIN

[19] = target: Cytochrome P450 2C9 (Homo sapiens, UniProt P11712)
[20] = target: Cytochrome P450 2D6 (Homo sapiens, UniProt P10635);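 note: CYP2D6 member of a cytochrome P450 panel assay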

Chain of Peroxisome proliferator-activated receptor gamma/Nuclear receptor coactivator 3 (P37231 whole entry): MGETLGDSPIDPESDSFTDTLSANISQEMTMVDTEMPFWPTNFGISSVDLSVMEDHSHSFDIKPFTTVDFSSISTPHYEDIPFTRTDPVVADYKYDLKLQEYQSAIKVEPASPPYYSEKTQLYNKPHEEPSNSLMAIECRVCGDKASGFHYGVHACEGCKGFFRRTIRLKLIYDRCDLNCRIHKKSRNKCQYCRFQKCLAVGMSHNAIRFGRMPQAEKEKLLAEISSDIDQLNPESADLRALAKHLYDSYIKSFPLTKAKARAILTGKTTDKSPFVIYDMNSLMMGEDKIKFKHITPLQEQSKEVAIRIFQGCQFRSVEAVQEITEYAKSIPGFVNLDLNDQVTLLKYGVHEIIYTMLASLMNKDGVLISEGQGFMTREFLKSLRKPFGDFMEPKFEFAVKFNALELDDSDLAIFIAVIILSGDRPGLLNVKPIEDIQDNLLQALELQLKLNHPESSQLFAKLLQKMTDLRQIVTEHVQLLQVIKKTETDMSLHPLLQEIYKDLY
Chain of Peroxisome proliferator-activated receptor gamma/Nuclear receptor coactivator 3 (Q9Y6Q9 whole entry, further chain): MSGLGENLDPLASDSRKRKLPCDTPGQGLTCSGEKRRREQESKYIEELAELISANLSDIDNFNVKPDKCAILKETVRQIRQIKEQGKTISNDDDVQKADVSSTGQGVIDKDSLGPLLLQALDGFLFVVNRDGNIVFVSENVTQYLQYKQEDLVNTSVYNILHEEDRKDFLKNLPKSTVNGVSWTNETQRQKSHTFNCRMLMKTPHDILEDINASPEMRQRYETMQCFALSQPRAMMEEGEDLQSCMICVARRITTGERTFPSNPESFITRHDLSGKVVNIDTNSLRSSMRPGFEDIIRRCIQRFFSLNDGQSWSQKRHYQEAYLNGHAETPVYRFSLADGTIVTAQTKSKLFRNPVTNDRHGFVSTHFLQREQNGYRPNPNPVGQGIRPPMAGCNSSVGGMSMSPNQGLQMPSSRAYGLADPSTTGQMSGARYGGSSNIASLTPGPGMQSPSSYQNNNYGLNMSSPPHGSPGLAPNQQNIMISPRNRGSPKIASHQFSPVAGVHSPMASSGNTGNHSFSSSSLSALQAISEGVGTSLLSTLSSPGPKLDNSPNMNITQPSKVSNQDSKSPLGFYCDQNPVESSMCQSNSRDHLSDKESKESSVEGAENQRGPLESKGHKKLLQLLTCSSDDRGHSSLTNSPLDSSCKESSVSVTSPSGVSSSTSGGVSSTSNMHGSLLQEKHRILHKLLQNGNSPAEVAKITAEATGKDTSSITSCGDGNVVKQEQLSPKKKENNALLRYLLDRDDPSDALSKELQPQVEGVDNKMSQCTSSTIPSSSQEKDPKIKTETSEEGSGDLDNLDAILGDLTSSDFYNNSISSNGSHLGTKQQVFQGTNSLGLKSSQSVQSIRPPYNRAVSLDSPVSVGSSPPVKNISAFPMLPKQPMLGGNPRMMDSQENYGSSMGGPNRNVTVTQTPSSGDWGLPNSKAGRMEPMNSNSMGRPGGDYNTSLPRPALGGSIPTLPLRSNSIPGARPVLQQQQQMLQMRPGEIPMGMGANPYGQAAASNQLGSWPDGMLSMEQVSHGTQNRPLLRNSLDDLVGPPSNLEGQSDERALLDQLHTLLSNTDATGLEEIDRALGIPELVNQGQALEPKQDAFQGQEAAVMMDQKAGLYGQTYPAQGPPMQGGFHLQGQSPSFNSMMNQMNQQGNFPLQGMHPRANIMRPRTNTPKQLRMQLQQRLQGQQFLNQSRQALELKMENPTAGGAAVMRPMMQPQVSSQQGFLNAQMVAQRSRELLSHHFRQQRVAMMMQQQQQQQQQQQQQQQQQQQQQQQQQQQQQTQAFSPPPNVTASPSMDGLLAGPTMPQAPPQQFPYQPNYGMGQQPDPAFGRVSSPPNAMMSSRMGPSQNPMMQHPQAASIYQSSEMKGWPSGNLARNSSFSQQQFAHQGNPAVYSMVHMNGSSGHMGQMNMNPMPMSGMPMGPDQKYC
Chain of Peroxisome proliferator-activated receptor gamma/Nuclear receptor coactivator 1 (P37231 whole entry): as the sequence (P37231 whole entry) above
Chain of Peroxisome proliferator-activated receptor gamma/Nuclear receptor coactivator 1 (Q15788 whole entry, further chain): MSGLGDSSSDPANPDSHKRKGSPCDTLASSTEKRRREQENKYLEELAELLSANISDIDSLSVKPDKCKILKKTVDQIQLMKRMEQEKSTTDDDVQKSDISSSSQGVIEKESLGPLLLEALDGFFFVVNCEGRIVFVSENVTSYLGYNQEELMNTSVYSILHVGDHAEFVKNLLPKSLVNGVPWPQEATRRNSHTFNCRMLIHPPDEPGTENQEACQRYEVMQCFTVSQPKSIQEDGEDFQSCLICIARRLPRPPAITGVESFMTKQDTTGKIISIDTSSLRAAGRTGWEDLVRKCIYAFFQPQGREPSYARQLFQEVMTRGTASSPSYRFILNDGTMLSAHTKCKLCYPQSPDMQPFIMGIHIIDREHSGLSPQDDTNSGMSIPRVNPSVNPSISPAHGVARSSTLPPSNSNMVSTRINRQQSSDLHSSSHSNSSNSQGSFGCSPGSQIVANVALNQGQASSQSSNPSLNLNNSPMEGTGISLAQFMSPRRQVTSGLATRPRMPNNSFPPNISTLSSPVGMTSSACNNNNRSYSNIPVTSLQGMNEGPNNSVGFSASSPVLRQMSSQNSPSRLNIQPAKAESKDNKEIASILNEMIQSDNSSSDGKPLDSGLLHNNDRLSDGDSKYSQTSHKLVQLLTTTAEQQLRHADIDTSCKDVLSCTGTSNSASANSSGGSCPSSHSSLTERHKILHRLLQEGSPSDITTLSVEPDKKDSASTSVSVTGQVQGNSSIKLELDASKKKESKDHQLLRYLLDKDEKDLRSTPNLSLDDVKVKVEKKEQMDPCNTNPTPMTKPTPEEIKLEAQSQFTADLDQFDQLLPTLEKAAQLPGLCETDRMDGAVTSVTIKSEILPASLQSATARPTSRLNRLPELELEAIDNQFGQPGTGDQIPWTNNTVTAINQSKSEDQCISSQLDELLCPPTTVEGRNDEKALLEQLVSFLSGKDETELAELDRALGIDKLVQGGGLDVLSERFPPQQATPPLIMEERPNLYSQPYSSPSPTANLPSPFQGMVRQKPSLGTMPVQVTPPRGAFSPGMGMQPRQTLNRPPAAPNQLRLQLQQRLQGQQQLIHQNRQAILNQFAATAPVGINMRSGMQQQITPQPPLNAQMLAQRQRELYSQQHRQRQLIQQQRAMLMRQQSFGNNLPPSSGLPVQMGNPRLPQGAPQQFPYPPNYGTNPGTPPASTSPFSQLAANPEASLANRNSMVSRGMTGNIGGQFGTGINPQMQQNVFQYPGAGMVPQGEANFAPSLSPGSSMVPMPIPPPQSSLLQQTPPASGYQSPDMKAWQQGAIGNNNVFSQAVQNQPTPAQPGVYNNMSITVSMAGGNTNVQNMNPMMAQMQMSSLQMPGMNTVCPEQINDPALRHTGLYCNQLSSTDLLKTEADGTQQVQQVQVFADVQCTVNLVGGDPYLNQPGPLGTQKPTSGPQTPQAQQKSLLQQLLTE
Chain of Mitogen-activated protein kinase 10 (P53779 whole entry): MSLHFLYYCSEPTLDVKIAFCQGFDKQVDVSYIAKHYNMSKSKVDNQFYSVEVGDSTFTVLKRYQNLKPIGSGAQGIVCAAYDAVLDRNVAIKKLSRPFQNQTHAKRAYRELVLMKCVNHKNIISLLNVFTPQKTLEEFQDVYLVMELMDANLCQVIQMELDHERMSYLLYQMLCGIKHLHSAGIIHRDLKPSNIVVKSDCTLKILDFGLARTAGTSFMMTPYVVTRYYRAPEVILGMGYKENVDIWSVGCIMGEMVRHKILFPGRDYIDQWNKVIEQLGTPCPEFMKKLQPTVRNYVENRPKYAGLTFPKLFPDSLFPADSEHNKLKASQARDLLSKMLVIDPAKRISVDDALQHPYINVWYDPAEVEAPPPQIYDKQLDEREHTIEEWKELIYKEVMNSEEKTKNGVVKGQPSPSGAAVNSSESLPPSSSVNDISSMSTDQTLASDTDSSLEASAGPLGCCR
Chain of Cytochrome P450 2C19 (P33261 whole entry): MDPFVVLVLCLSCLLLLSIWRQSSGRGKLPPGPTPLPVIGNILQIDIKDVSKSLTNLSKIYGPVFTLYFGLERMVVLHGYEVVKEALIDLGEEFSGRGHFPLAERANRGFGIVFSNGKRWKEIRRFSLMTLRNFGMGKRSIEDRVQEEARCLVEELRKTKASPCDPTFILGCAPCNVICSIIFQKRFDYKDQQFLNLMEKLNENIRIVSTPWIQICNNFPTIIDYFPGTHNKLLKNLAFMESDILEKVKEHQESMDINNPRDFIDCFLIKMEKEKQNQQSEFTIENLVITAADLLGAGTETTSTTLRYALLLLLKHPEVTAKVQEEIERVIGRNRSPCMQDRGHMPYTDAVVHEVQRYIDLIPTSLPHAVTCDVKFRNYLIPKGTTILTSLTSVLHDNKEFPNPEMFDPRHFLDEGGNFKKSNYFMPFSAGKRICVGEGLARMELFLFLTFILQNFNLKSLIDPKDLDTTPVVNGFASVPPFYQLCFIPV

SMILES: COc1ccccc1CNC(=O)c1cn(C)c2ccc(S(=O)(=O)N3CCCC3)cc2c1=O
- IC50 [1]: 5.95 µM (active)

SMILES: Cc1ccc(-n2nc3c(N4CCC(C(=O)NCc5ccc(C)o5)CC4)nnc(C)c3c2C)cc1
- IC50 [2]: 23 µM (inactive)

SMILES: COC(=O)c1[nH]c(C)c(C(=O)C2=C(O)C(=O)N(CCCN3CCOCC3)C2c2ccccn2)c1C (configuration not stated)
- IC50 [3]: > 100 µM (inactive)
- Ki [4]: 9.7 µM (active)

SMILES: Oc1c(C(c2ccccc2)N2CCN(Cc3ccccc3)CC2)sc2ncnn12 (configuration not stated)
- IC50 [5]: > 100 µM (active)

SMILES: CC1(C)CN(c2ccccc2)N(C(=O)c2ccc(F)cc2)C1=O
- IC50 [1]: 0.837 µM (active)
- AC50 [6]: 3.63 µM (active)

SMILES: C[C@H]1CN(C2=C(Cl)C(=O)N(c3cccc(C(F)(F)F)c3)C2=O)CCN1
- IC50 [7]: > 50 µM (inconclusive)

SMILES: CCOC(=O)n1cc(-c2cnc(CNC(=O)C(C)(c3ccccc3)c3ccccc3)o2)c2ccccc21
- EC50 [8]: > 79.4 µM (not active)
- EC50 [9]: > 79.4 µM (not active)
- EC50 [10]: > 79.4 µM (not active)

SMILES: Oc1[nH]c2ccccc2c1/C=N/c1ccc2c(c1)OCCO2
- IC50 [11]: 89.9 µM (not active)

SMILES: COc1ccc(C(C)=O)cc1COC(=O)c1c(C)noc1C
- IC50 [11]: 39.8 µM (not active)

SMILES: CN(C)S(=O)(=O)c1ccc(C(=O)OCC(=O)c2ccc3c(c2)NC(=O)CO3)cc1
- IC50 [2]: 29.3 µM (inactive)

SMILES: Cc1ccccc1CC1(CO)CCCN(C(=O)CCC(=O)c2ccccc2)C1 (configuration not stated)
- CC50 [12]: 28.5 µM (active)
- EC50 [8]: > 79.4 µM (not active)
- EC50 [9]: > 79.4 µM (not active)
- EC50 [10]: > 79.4 µM (not active)

SMILES: Cn1c(CN2CCOCC2)nc2cc(NC(=O)c3ccc(F)cc3)ccc21
- IC50 [5]: > 100 µM (active)

SMILES: Cc1ccc(-n2c(C)cc(C(=O)COc3c(CO)cc(F)cc3CO)c2C)cc1C
- EC50 [8]: > 79.4 µM (not active)
- EC50 [9]: > 79.4 µM (not active)
- EC50 [10]: > 79.4 µM (not active)
- EC50 [13]: > 260 µM (inactive)

SMILES: COc1ccc(/C=N\NS(=O)(=O)c2ccc(Cl)cc2)cc1COc1ccccc1[N+](=O)[O-]
- IC50 [1]: > 50 µM (not active)

SMILES: CCn1cc(C(=O)NCc2ccc3c(c2)OCO3)c(=O)c2cc(F)c(N3CCN(C(=O)c4ccco4)CC3)cc21
- EC50 [14]: 6.52 µM (active)
- EC50 [15]: > 150 µM (not active)
- EC50 [16]: 20.8 µM (active)
- IC50 [2]: 29.4 µM (inactive)

SMILES: COc1ccccc1C1C(C(=O)c2ccccc2)=C(O)C(=O)N1CCO (configuration not stated)
- AC50 [17]: 39.8 µM (inconclusive)
- Ki [4]: 19.7 µM (inactive)
- AC50 [18]: 0.794 µM (inconclusive)
- AC50 [19]: 39.8 µM (inconclusive)

SMILES: COc1cc(CN/C(C)=C(\C#N)C(N)=O)cc(OC)c1OC
- IC50 [11]: 7.16 µM (active)

SMILES: CCC(C)(C(=O)NC1CCCC1)N(CC1CCCO1)C(=O)c1ccc2c(c1)OCO2 (configuration not stated)
- AC50 [17]: 5.62 µM (inconclusive)
- Ki [4]: > 66.7 µM (inactive)
- AC50 [20]: 35.5 µM (inconclusive)
- AC50 [18]: 39.8 µM (inconclusive)

SMILES: COc1cccc2sc(N3CCN(c4nc5ccccc5s4)CC3)nc12
- EC50 [8]: 19.1 µM (not active)
- EC50 [9]: 13.4 µM (not active)
- EC50 [10]: 22.9 µM (not active)

SMILES: O=C(CSc1nc(O)c2cnn(-c3ccc(F)cc3)c2n1)N1CCCCCC1
- IC50 [1]: > 50 µM (not active)

SMILES: COc1ccc(C2(CNC(=O)/C=C\c3ccco3)CCCC2)cc1OC
- EC50 [8]: > 79.4 µM (not active)
- EC50 [9]: > 79.4 µM (not active)
- EC50 [10]: > 79.4 µM (not active)

SMILES: Cc1ccc(N2C(=O)C(Cl)=C(N(C)C)C2=O)cc1
- IC50 [7]: > 50 µM (inconclusive)

SMILES: O=C(NC1CCCC1)c1cccnc1N1CCCCCC1
- IC50 [11]: > 93.1 µM (not active)
- AC50 [19]: 35.5 µM (inconclusive)
